Test results: ChEMBL document CHEMBL1201862, “PubChem BioAssay data set” (2004)
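Five concentrations, 48 hours, 96-well plates. The concentration for 50% growth inhibition is given as GI50.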 Activity calls are given as the source filed them. No stated cut-off is given here; in the data, active = GI50 up to about 1.1 µM and inactive = higher.

How the values were obtained:
Test in all cases: growth of human tumour cells (NCI), 48 h
HT-29 = test system: HT-29
TK-10 = test system: TK-10
KM12 = test system: KM12
OVCAR-8 = test system: OVCAR-8
SN12C = test system: SN12C
UO-31 = test system: UO-31
HCT-15 = test system: HCT-15
MCF7 = test system: MCF7
HL-60 = test system: HL-60
OVCAR-3 = test system: OVCAR-3
SF-539 = test system: SF-539
UACC-257 = test system: UACC-257
SNB-19 = test system: SNB-19
K562 = test system: K562
SW-620 = test system: SW-620
CCRF-CEM = test system: CCRF-CEM
HCT-116 = test system: HCT-116
A549 = test system: A549
A498 = test system: A498
EKVX = test system: EKVX
NCI-H226 = test system: NCI-H226
MDA-N = test system: MDA-N
SK-MEL-28 = test system: SK-MEL-28
OVCAR-4 = test system: OVCAR-4
RPMI-8226 = test system: RPMI-8226
SK-OV-3 = test system: SK-OV-3
OVCAR-5 = test system: OVCAR-5
SF-268 = test system: SF-268
ACHN = test system: ACHN
M14 = test system: M14
HOP-62 = test system: HOP-62
RXF 393 = test system: RXF 393
MOLT-4 = test system: MOLT-4
IGROV-1 = test system: IGROV-1
SK-MEL-5 = test system: SK-MEL-5
MDA-MB-231 = test system: MDA-MB-231
COLO 205 = test system: COLO 205
786-0 = test system: 786-0
SR = test system: SR
SNB-75 = test system: SNB-75
NCI-H460 = test system: NCI-H460
HOP-92 = test system: HOP-92
NCI-H23 = test system: NCI-H23
PC-3 = test system: PC-3
CAKI-1 = test system: CAKI-1
Malme-3M = test system: Malme-3M
NCI/ADR-RES = test system: NCI/ADR-RES
BT-549 = test system: BT-549
HCC 2998 = test system: HCC 2998
LOX IMVI = test system: LOX IMVI
SF-295 = test system: SF-295
UACC-62 = test system: UACC-62
DU-145 = test system: DU-145
NCI-H522 = test system: NCI-H522
U-251 = test system: U-251
Hs-578T = test system: Hs-578T
SK-MEL-2 = test system: SK-MEL-2
MDA-MB-435 = test system: MDA-MB-435
T47D = test system: T47D

In the case of `COc1cc(-c2cc(O)c(-c3ccc4ccccc4n3)c(O)n2)cc(OC)c1OC`, the GI50 (HT-29) is reported as 18.6 µM (inactive), the GI50 (TK-10) is reported as 69.7 µM (inactive) and the GI50 (KM12) is reported as 14.8 µM (inactive). The GI50 (OVCAR-8) was > 32.4 µM (inactive), the GI50 (SN12C) was > 56.6 µM (inactive) and the GI50 (UO-31) was 68.7 µM (inactive). The GI50 (HCT-15) was 29 µM, the GI50 (MCF7) was 39.1 µM (inactive) and the GI50 (HL-60) was 8.55 µM (inactive). For the same compound, the GI50 (OVCAR-3) was 12.4 µM (inactive), the GI50 (SF-539) was 30.7 µM (inactive) and the GI50 (UACC-257) was 54.3 µM (inactive). For the same compound, the GI50 (SNB-19) was > 75.7 µM (inactive), the GI50 (K562) was 3.31 µM (inactive) and the GI50 (SW-620) was 19.1 µM (inactive). For the same compound, the GI50 (CCRF-CEM) was 10.3 µM (inactive), the GI50 (HCT-116) was 19 µM (inactive) and the GI50 (A549) was 53.7 µM (inactive). For the same compound, the GI50 (A498) was > 61 µM (inactive), the GI50 (EKVX) was > 52 µM (inactive) and the GI50 (NCI-H226) was > 48.3 µM (inactive). The GI50 (MDA-N) was 3.56 µM (inactive), the GI50 (SK-MEL-28) was 42.1 µM (inactive) and the GI50 (OVCAR-4) was > 38.5 µM (inactive). For the same compound, the GI50 (RPMI-8226) was > 50 µM (inactive), the GI50 (SK-OV-3) was 39.6 µM (inactive) and the GI50 (OVCAR-5) was > 59.6 µM (inactive). For the same compound, the GI50 (SF-268) was 43 µM (inactive), the GI50 (ACHN) was > 62.7 µM (inactive) and the GI50 (M14) was 25.4 µM (inactive). The GI50 (HOP-62) was 53.3 µM (inactive), the GI50 (RXF 393) was 39.9 µM (inactive) and the GI50 (MOLT-4) was 6.97 µM (inactive). The GI50 (IGROV-1) was 43.5 µM (inactive), the GI50 (SK-MEL-5) was 15.1 µM (inactive) and the GI50 (MDA-MB-231) was 36.6 µM (inactive). The GI50 (COLO 205) was 38.7 µM (inactive), the GI50 (786-0) was 34.4 µM (inactive) and the GI50 (SR) was 1.77 µM (inactive). The GI50 (SNB-75) was 17.9 µM (inactive), the GI50 (NCI-H460) was 31 µM (inactive) and the GI50 (HOP-92) was 26.2 µM (inactive). For the same compound, the GI50 (NCI-H23) was 46.2 µM (inactive), the GI50 (PC-3) was 44.3 µM (inactive) and the GI50 (CAKI-1) was > 44 µM (inactive). The GI50 (Malme-3M) was 13.1 µM (inactive), the GI50 (NCI/ADR-RES) was 26.9 µM (inactive) and the GI50 (BT-549) was 80.4 µM (inactive). The GI50 (HCC 2998) was > 60.3 µM (inactive), the GI50 (LOX IMVI) was 19.1 µM (inactive) and the GI50 (SF-295) was 21.9 µM (inactive). The GI50 (UACC-62) was 15.2 µM (inactive), the GI50 (DU-145) was 44.9 µM (inactive) and the GI50 (NCI-H522) was 13.2 µM (inactive). The GI50 (U-251) was 22.9 µM (inactive), the GI50 (Hs-578T) was 57.4 µM (inactive) and the GI50 (SK-MEL-2) was 32.2 µM (inactive). For the same compound, the GI50 (MDA-MB-435) was 2.07 µM (inactive) and the GI50 (T47D) was 97.5 µM (inactive).
With `COc1ccc(C2C(=O)c3ccc(OC)cc3OC2c2cccnc2)cc1` (stereo not drawn) the GI50 (HT-29) was > 100 µM (inactive), the GI50 (TK-10) was 46.7 µM (inactive) and the GI50 (KM12) was > 100 µM (inactive). The GI50 (OVCAR-8) was 56 µM (inactive), the GI50 (SN12C) was > 100 µM (inactive) and the GI50 (UO-31) was > 100 µM (inactive). The GI50 (HCT-15) was > 100 µM, the GI50 (MCF7) was > 100 µM (inactive) and the GI50 (HL-60) was > 100 µM (inactive). For the same compound, the GI50 (OVCAR-3) was > 100 µM (inactive), the GI50 (SF-539) was > 100 µM (inactive) and the GI50 (UACC-257) was > 100 µM (inactive). For the same compound, the GI50 (SNB-19) was 92.7 µM (inactive), the GI50 (K562) was > 100 µM (inactive) and the GI50 (SW-620) was > 100 µM (inactive). The GI50 (CCRF-CEM) was > 100 µM (inactive), the GI50 (HCT-116) was > 100 µM (inactive) and the GI50 (A549) was > 100 µM (inactive). For the same compound, the GI50 (A498) was > 100 µM (inactive), the GI50 (EKVX) was > 100 µM (inactive) and the GI50 (NCI-H226) was 44.2 µM (inactive). The GI50 (MDA-N) was > 100 µM (inactive), the GI50 (SK-MEL-28) was > 100 µM (inactive) and the GI50 (OVCAR-4) was > 100 µM (inactive). For the same compound, the GI50 (RPMI-8226) was > 100 µM (inactive), the GI50 (SK-OV-3) was 43.2 µM (inactive) and the GI50 (OVCAR-5) was > 100 µM (inactive). The GI50 (SF-268) was 49.8 µM (inactive), the GI50 (ACHN) was > 100 µM (inactive) and the GI50 (M14) was > 100 µM (inactive). The GI50 (HOP-62) was 33.2 µM (inactive), the GI50 (RXF 393) was 86.3 µM (inactive) and the GI50 (MOLT-4) was > 100 µM (inactive). The GI50 (IGROV-1) was > 100 µM (inactive), the GI50 (SK-MEL-5) was > 100 µM (inactive) and the GI50 (MDA-MB-231) was > 100 µM (inactive). For the same compound, the GI50 (COLO 205) was > 100 µM (inactive), the GI50 (786-0) was 83.2 µM (inactive) and the GI50 (SR) was > 100 µM (inactive). The GI50 (SNB-75) was 34.8 µM (inactive), the GI50 (NCI-H460) was > 100 µM (inactive) and the GI50 (HOP-92) was 22.5 µM (inactive). The GI50 (NCI-H23) was > 100 µM (inactive), the GI50 (PC-3) was > 100 µM (inactive) and the GI50 (CAKI-1) was > 100 µM (inactive). The GI50 (Malme-3M) was > 100 µM (inactive), the GI50 (NCI/ADR-RES) was > 100 µM (inactive) and the GI50 (BT-549) was 49.9 µM (inactive). The GI50 (HCC 2998) was > 100 µM (inactive), the GI50 (LOX IMVI) was > 100 µM (inactive) and the GI50 (SF-295) was 46.6 µM (inactive). For the same compound, the GI50 (UACC-62) was > 100 µM (inactive), the GI50 (DU-145) was > 100 µM (inactive) and the GI50 (NCI-H522) was > 100 µM (inactive). The GI50 (U-251) was 70.3 µM (inactive), the GI50 (Hs-578T) was 45.1 µM (inactive) and the GI50 (SK-MEL-2) was > 100 µM (inactive). The GI50 (MDA-MB-435) was > 100 µM (inactive) and the GI50 (T47D) was > 100 µM (inactive).
